What was measured:
Type in all cases: in vivo
[1] = system: ticks (Rhipicephalus sanguineus); assay: Control of ticks on treated dogs (Biological Examples 1-3); conditions: dogs, 10 mg/kg, 30 mg/mL in 1:1 dimethyl sulfoxide/corn oil, 1 day post-treatment, versus placebo group
Protocol: (§1) All dogs were infested with cat fleas (Ctenocephalides felis) and with ticks (Rhipicephalus sanguineus) 1 day prior to administration of the compound. Cats were only infested with fleas. The initial flea and tick counts were performed 1 day after the administration of the compounds. At 7, 14, 21 and 28 days after treatment the dogs were re-infested with ticks and 8, 15, 22 and 29 days after treatment the dogs and cats were re-infested with fleas. At 1, 9, 16, 23 and 30 days after treatment the control of fleas and ticks in treated dogs and cats was determined versus a group of infested dogs and cats which received a placebo consisting of a 1:1 volume/volume solution of dimethyl sulfoxide and corn oil. To determine the efficacies of the compounds, the arthropods were combed from the animals and counted.
(§2) The compounds listed below were formulated and tested as described in Biological Example 1, again at the dosage level of active ingredient of 10 mg/kg in dogs and 20 mg/kg in cats. Results at 1 DPT (day post-treatment) are tabulated below, where the compound numbers are the same as those listed in Tables 1, 2, 4, 5, 6, 7, 8, 9, 10, 11, 12 and 13 hereinabove.
(§3) Testing was carried out as described in Biological Example 1. […] The Huang et al compound was deemed to have insufficient activity to be tested in cats.

[2] = system: cat fleas (Ctenocephalides felis); assay: Control of cat fleas on treated cats (Biological Examples 1-3); conditions: cats, 20 mg/kg, 30 mg/mL in 1:1 dimethyl sulfoxide/corn oil, 1 day post-treatment, versus placebo group
Protocol: as §1, §2, §3

Emesis in treated cats = conditions: cats, 20 mg/kg
Protocol: (§4) By the term “emesis” is meant vomiting. Generally an emetic substance elicits emesis in less than 24 hours after administration, usually less than 8 hours, more usually less than 2 hours. By the term “substantially non-emetic” is meant that, generally, when a compound or composition of the invention is administered to a population of animals, more than 70% (or at least ⅔) of the animals are free of emesis. Preferably, more than 80%, most preferably more than 90%, of said population is free of emesis.
(§5) In the animals treated with the compounds above, there was substantially no emesis after 2, 8 and 24 hours. Generally long-term control of fleas and ticks was provided in dogs. In the cats treated, there was commercially acceptable control of fleas for at least one day post treatment.
as §2

[3] = system: cat fleas (Ctenocephalides felis); assay: Control of cat fleas on treated dogs (Biological Examples 1-3); conditions: dogs, 10 mg/kg, 30 mg/mL in 1:1 dimethyl sulfoxide/corn oil, 1 day post-treatment, versus placebo group
Protocol: as §1, §2, §3

Emesis in treated dogs = conditions: dogs, 10 mg/kg
Protocol: as §4, §5, §2

SMILES | % Control 1 DPT (Fleas/Ticks): Ticks [1] | % Control 1 DPT (Fleas) [2] [%] | % Emesis (Emesis in treated cats) [%] | % Control 1 DPT (Fleas/Ticks): Fleas [3] | % Emesis (Emesis in treated dogs) [%]
CN(C(=O)C1CCCO1)c1c([S+]([O-])C(F)(F)F)c(C#N)nn1-c1c(Cl)cc(C(F)(F)F)cc1Cl (mixture of isomers) [Compound 1-9] | 100/100% | 100 | 0 | 100/100% | 0
CN(C(=O)C1CCCO1)c1c(SC(F)(F)F)c(C#N)nn1-c1c(Cl)cc(C(F)(F)F)cc1Cl (racemic) [Compound 1-7] | 97% | 100 | 25 | 100% | 0
CN(C(=O)C1CCCO1)c1c(S(=O)(=O)C(F)(F)F)c(C#N)nn1-c1c(Cl)cc(C(F)(F)F)cc1Cl (racemic) [Compound 1-11] | 100/100% | 98 | 0 | 100/100% | 0
CCOCC(=O)N(C)c1c([S+]([O-])C(F)(F)F)c(C#N)nn1-c1c(Cl)cc(C(F)(F)F)cc1Cl (racemic) [Compound 3-3] | 98% | 100 | 0 | 100% | 0
N#Cc1nn(-c2c(Cl)cc(C(F)(F)F)cc2Cl)c(N(C(=O)C2CCCO2)C2CC2)c1S(=O)(=O)C(F)(F)F (racemic) [Compound 6-11] | 98% | 98 | 0 | 100% | 0
N#Cc1nn(-c2c(Cl)cc(C(F)(F)F)cc2Cl)c(N(CC2CC2)C(=O)C2CCCO2)c1S(=O)(=O)C(F)(F)F (racemic) [Compound 7-11] | 100/100% | 100 | 0 | 100/100% | 0
CCOC(C)C(=O)N(C)c1c(SC(F)(F)F)c(C#N)nn1-c1c(Cl)cc(C(F)(F)F)cc1Cl (racemic) [Compound 116-1] | 100% | 100 | 0 | 79% | 0
CC(=O)N(C)c1c(SC(F)(F)F)c(C#N)nn1-c1c(Cl)cc(C(F)(F)F)cc1Cl [Compound 1-1] | 82% | 99 | 0 | 91% | 0
CC(=O)N(C)c1c(S(=O)(=O)C(F)(F)F)c(C#N)nn1-c1c(Cl)cc(C(F)(F)F)cc1Cl [Compound 1-5] | 84% | 0 | 33 | 98% | 0

Source: patent publication US6630499B1, “Control of arthropods in animals” (Aventis CropScience, S.A., priority 1998, dated 2003)
